Patent publication US11970450B2, “Multi-component crystals of an orally available HIF prolyl hydroxylase inhibitor” (Sandoz AG, priority 2018, dated 2024)
Read-outs that look alike come from different tables or passages of the source.

Experiments:
[1] = Thermal stability by differential scanning calorimetry (DSC); format: physicochemical; conditions: for DSC: thermal events / phase transformations before melting / Thermal stability: 25 to 250° C. at 10 K/min; for DSC: thermal events / phase transformations before melting: nitrogen purge; for Physically stable toward temperature stress: no thermal events in DSC until start to melt at: DSC 10 K/min; for Thermal stability: Table 7 summary, temperature stress, DSC and TGA
Method: DSC was performed on a Mettler Polymer DSC R instrument. […] Nitrogen (purge rate 50 mL/min) was used as purge gas.

[2] = Thermogravimetric analysis (TGA) mass loss on heating; format: physicochemical; conditions: 10 K/min
Method: TGA was performed on a Mettler TGA/DSC 1 instrument. The samples (9.53 mg Form 1 and 8.16 mg Form 2, 8.12 mg 1,4-dioxane solvate) were heated in a 100 microliter aluminum pan closed with an aluminum lid. The lid was automatically pierced at the beginning of the measurement. The samples were heated from 25 to 250° C. at a rate of 10 K/min. Nitrogen (purge rate 50 mL/min) was used as purge gas.
Also, no significant mass loss is visible in the TGA curves of Form 1 and Form 2 until they melt.

[3] = cited from earlier work
[4] = up to a temperature of about 170° C.

What does the source list for `O=C(O)CNC(=O)c1ncc(-c2cccc(Cl)c2)cc1O` [Vadadustat L-proline form 1, vadadustat L-proline]?
DSC: thermal events / phase transformations before melting ([1]; listed as vadadustat L-proline form 1): undergoes no desolvation or phase transformations but is stable until it melts; Physically stable toward temperature stress: no thermal events in DSC until start to melt at ([1]; listed as Form 1): about 170 °C; Thermal stability [1]: physically stable until melting at; TGA mass loss [2, 4]: about 0.20 weight %

With `O=C(O)CNC(=O)c1ncc(-c2cccc(Cl)c2)cc1O` [Vadadustat L-proline form 2, vadadustat L-proline] as the compound, how does the “DSC: thermal events / phase transformations before melting” value ([1]; listed as vadadustat L-proline form 2) read?
Its value is “undergoes no phase transformations but is stable until it melts”.

What about the “Physically stable toward temperature stress: no thermal events in DSC until start to melt at” value ([1]; listed as Form 2) of the same compound?
Its value is ~178 °C.

What about the TGA mass loss ([2]; up to a temperature of about 180° C.) of the same compound?
Its TGA mass loss is “about 0.15 weight %”.

What does the source list for `C1COCCO1.O=C(O)CNC(=O)c1ncc(-c2cccc(Cl)c2)cc1O` [Vadadustat 1,4-dioxane solvate, reference compound]?
DSC onset of first broad endothermic peak (release of 1,4-dioxane from the crystal structure) ([1]; 10 K/min): about 78 °C; Thermal stability [1]: desolvation below 100 °C; Temperature at which TGA mass loss starts [2]: about 40 °C; TGA mass loss [2, 4]: about 19 weight %

Which results are given for `O=C(O)CNC(=O)c1ncc(-c2cccc(Cl)c2)cc1O` [Vadadustat hydrate]?
Thermal stability ([3]; Table 7 summary, hydrate of WO 2018/108101 A1, temperature stress): dehydration below 100 °C; Physical stability upon temperature stress ([3]; background statement on hydrate CS2 of WO 2018/108101 A1): physically unstable upon temperature stress
